From patent US20220289679A1, “HETEROCYCLIC COMPOUND” (Takeda Pharmaceutical Company Limited, priority 2019, published 2022)

The compounds below were run against T1, human GCS (glucosylceramide synthase) (Homo sapiens, UniProt Q16739) (assay: Glucosylceramide Synthase (GCS) Assay). Settings: test compound 10 μM; microsome fraction of Expi293F cells expressing human GCS; 1.7 μM UDP-glucose, 3 μM C8 ceramide; room temperature 60 min; C8 glucosylceramide by Rapidfire MS/MS; read-out: GCS enzyme inhibitory rate at 10 μM (%).
T1 construct: made in house; host or cells: Expi293F cells (transient expression; microsome fraction)
T1 sequence (Q16739 1-394): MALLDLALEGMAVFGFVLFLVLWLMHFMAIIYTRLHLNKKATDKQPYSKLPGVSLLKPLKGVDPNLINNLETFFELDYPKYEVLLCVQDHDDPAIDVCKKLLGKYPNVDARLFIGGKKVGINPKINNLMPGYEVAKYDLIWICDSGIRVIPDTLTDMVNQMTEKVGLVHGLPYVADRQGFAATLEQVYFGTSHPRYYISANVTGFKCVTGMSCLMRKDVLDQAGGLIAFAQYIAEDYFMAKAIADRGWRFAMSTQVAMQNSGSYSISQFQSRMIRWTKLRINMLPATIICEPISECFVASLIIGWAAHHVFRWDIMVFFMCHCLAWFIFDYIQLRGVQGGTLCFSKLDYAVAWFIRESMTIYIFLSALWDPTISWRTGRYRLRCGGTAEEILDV
Assay type: biochemical
Procedure: In enzyme assay, a microsome fraction obtained by transient expression by Expi293F™ cells (catalog number: A14527, Thermo Fisher Scientific) was used as a glucosylceramide synthase source. Liposomal C8 ceramide and UDP-glucose were used as substrates. For each substrate concentration, 1.7 μM UDP-glucose, which is equal to the Km value, and 3 μM C8 ceramide were used. After the enzymatic reaction, the analysis was performed with Rapidfire MS/MS (API-4000™, SCIEX), and C8 glucosylceramide was quantified to evaluate the inhibitory activity of the test compound against glucosylceramide synthase activity.
PcDNA3.3TOPO vector (catalog number: K830001, Thermo Fisher Scientific) into which the human GCS gene was inserted was introduced into Expi293F™ Cells (catalog number: A14527, Thermo Fisher Scientific) by using ExpiFectamine™ 293 Transfection Kit (catalog number: A14525, Thermo Fisher Scientific). The cultured cells were dissolved in D-PBS (catalog number: 048-29805, Fuji Film Wako Pure Chemical Industries, Ltd.) containing 1 mM PMSF, and the solution was allowed to stand on ice for 30 minutes, and then subjected to cell disruption (homogenized). The disruption solution was centrifuged at 10,000×g for 20 minutes at 4° C., and the obtained supernatant was centrifuged at 142,400×g for 60 minutes at 4° C. The obtained precipitate was resuspended in a D-PBS solution containing 1 mM PMSF, and homogenized again to prepare as a microsome fraction. Protein quantification was performed by the CBB method.
A 1 mM compound solution prepared by dissolving the test compound in DMSO was added to a 384-well plate by 100 nL so that the final concentration of the test compound was 10 μM. Next, a substrate solution consisting of 3.4 μM UDP-glucose and 6 μM C8 ceramide was added by 5 μL, followed by an enzyme solution consisting of a 25 μg/mL microsome fraction by 5 μL. C8 ceramide was prepared from liposomes composed of 15 mol % C8 ceramide and 85 mol % dioleoyl phosphatidylcholine (1,2-dioleoyl-sn-glycero-3-phosphocholine: DOPC). The enzymatic reaction was carried out in a solution consisting of 20 mM tris-hydrochloric acid buffer (pH 7.5), 0.01% Tween 20, 0.01% bovine serum albumin and 1 mM dithiothreitol at room temperature for 60 min. Then, a solution consisting of 75% isopropanol and 1% formic acid containing 0.25 μM N-Octadecanoyl-D35-psichosine (catalog number: 1914, Matreya) as an internal standard substance was added by 60 μL to stop the enzymatic reaction. 5 μL of the centrifugal supernatant of the obtained reaction product was analyzed by Rapidfire MS/MS (Agilent Technologies) using API-4000™ (SCIEX), and the C8 glucosylceramide was quantified to evaluate the inhibitory activity of the test compound against the glucosylceramide synthase activity. The inhibitory activity of the test compound was evaluated when the C8 glucosylceramide level in the enzyme-free solution was considered as 100% inhibitory and the enzyme activity of the DMSO group in the absence of the compound was considered as 0% inhibitory.

Row | SMILES | inhibition at 10 µM [%]
1 | O=C(Nc1ccc(C(F)(F)F)nn1)c1cccn(-c2ccc(F)cc2OCC(F)(F)F)c1=O [Example 38, 1-[4-fluoro-2-(2,2,2-trifluoroethoxy)phenyl]-2-oxo-N-[6-(trifluoromethyl)pyridazin-3-yl]-1,2-dihydropyridine-3-carboxamide] | 97
2 | O=C(Nc1cnn(CC2CC2)c1)c1cccn(-c2ccc(F)cc2OCC(F)(F)F)c1=O [Example 40, N-[1-(cyclopropylmethyl)-1H-pyrazol-4-yl]-1-[4-fluoro-2-(2,2,2-trifluoroethoxy)phenyl]-2-oxo-1,2-dihydropyridine-3-carboxamide] | 69
3 | N#Cc1ccc(NC(=O)c2cccn(-c3ccc(F)cc3OCC(F)(F)F)c2=O)cc1 [Example 41, N-(4-cyanophenyl)-1-[4-fluoro-2-(2,2,2-trifluoroethoxy)phenyl]-2-oxo-1,2-dihydropyridine-3-carboxamide] | 88
4 | CC(C)(O)c1ccc(NC(=O)c2cccn(-c3ccc(F)cc3OCC(F)(F)F)c2=O)cc1 [Example 42, 1-[4-fluoro-2-(2,2,2-trifluoroethoxy)phenyl]-N-[4-(2-hydroxypropan-2-yl)phenyl]-2-oxo-1,2-dihydropyridine-3-carboxamide] | 99
5 | O=C(Nc1ccc(C(=O)N2CCCCC2)cc1)c1cccn(-c2ccc(F)cc2OCC(F)(F)F)c1=O [Example 43, 1-[4-fluoro-2-(2,2,2-trifluoroethoxy)phenyl]-2-oxo-N-[4-(piperidine-1-carbonyl)phenyl]-1,2-dihydropyridine-3-carboxamide] | 95
6 | O=C(Nc1cnn(CC(F)(F)F)c1)c1cccn(-c2ccc(F)cc2OCC(F)(F)F)c1=O [Example 48, 1-[4-fluoro-2-(2,2,2-trifluoroethoxy)phenyl]-2-oxo-N-[1-(2,2,2-trifluoroethyl)-1H-pyrazol-4-yl]-1,2-dihydropyridine-3-carboxamide] | 70
7 | O=C(Nc1ccc(C(F)F)nc1)c1cccn(-c2ccc(F)cc2OCC(F)(F)F)c1=O [Example 49, N-[6-(difluoromethyl)pyridin-3-yl]-1-[4-fluoro-2-(2,2,2-trifluoroethoxy)phenyl]-2-oxo-1,2-dihydropyridine-3-carboxamide] | 97
8 | O=C(Nc1ccc(OCC2CC2)cc1)c1cccn(-c2ccc(F)cc2OCC(F)(F)F)c1=O [Example 50, N-[4-(cyclopropylmethoxy)phenyl]-1-[4-fluoro-2-(2,2,2-trifluoroethoxy)phenyl]-2-oxo-1,2-dihydropyridine-3-carboxamide] | 100
9 | O=C(Nc1cnc(OC(F)F)nc1)c1cccn(-c2ccc(F)cc2OCC(F)(F)F)c1=O [Example 51, N-[2-(difluoromethoxy)pyrimidin-5-yl]-1-[4-fluoro-2-(2,2,2-trifluoroethoxy)phenyl]-2-oxo-1,2-dihydropyridine-3-carboxamide] | 84
10 | N#Cc1cc(F)ccc1-n1cccc(C(=O)Nc2ccc(OCC(F)(F)F)nc2)c1=O [Example 52, 1-(2-cyano-4-fluorophenyl)-2-oxo-N-[6-(2,2,2-trifluoroethoxy)pyridin-3-yl]-1,2-dihydropyridine-3-carboxamide] | 85
11 | O=C(Nc1ccc(OCC(F)(F)F)nc1)c1cccn(-c2ccc(F)cc2OCC(F)(F)C(F)(F)F)c1=O [Example 56, 1-[4-fluoro-2-(2,2,3,3,3-pentafluoropropoxy)phenyl]-2-oxo-N-[6-(2,2,2-trifluoroethoxy)pyridin-3-yl]-1,2-dihydropyridine-3-carboxamide] | 100
12 | N#CCc1ccc(NC(=O)c2cccn(-c3ccc(F)cc3OCC(F)(F)F)c2=O)cc1 [Example 57, N-[4-(cyanomethyl)phenyl]-1-[4-fluoro-2-(2,2,2-trifluoroethoxy)phenyl]-2-oxo-1,2-dihydropyridine-3-carboxamide] | 95
13 | CC(C)(O)c1ccc(NC(=O)c2cccn(-c3ccc(F)cc3OCC(F)(F)C(F)(F)F)c2=O)cc1 [Example 58, 1-[4-fluoro-2-(2,2,3,3,3-pentafluoropropoxy)phenyl]-N-[4-(2-hydroxypropan-2-yl)phenyl]-2-oxo-1,2-dihydropyridine-3-carboxamide] | 99
14 | CC(C)(O)COc1ccc(NC(=O)c2cccn(-c3ccc(F)cc3OCC(F)(F)F)c2=O)cc1 [Example 60, 1-[4-fluoro-2-(2,2,2-trifluoroethoxy)phenyl]-N-[4-(2-hydroxy-2-methylpropoxy)phenyl]-2-oxo-1,2-dihydropyridine-3-carboxamide] | 92
15 | CC(C)(O)Cc1ccc(NC(=O)c2cccn(-c3ccc(F)cc3OCC(F)(F)F)c2=O)cc1 [Example 61, 1-[4-fluoro-2-(2,2,2-trifluoroethoxy)phenyl]-N-[4-(2-hydroxy-2-methylpropyl)phenyl]-2-oxo-1,2-dihydropyridine-3-carboxamide] | 95
16 | O=C(Nc1cnn(CC(F)(F)C(F)(F)F)c1)c1cccn(-c2ccc(F)cc2OCC(F)(F)F)c1=O [Example 62, 1-[4-fluoro-2-(2,2,2-trifluoroethoxy)phenyl]-2-oxo-N-[1-(2,2,3,3,3-pentafluoropropyl)-1H-pyrazol-4-yl]-1,2-dihydropyridine-3-carboxamide] | 77
17 | CC(C)(O)c1ccc(NC(=O)c2cccn(-c3ccccc3OCC(F)(F)F)c2=O)cc1 [Example 63] | 100
18 | O=C(Nc1ccc(OCCC(F)(F)F)nc1)c1cccn(-c2ccc(F)cc2OCC(F)(F)F)c1=O [Example 64, 1-[4-fluoro-2-(2,2,2-trifluoroethoxy)phenyl]-2-oxo-N-[6-(3,3,3-trifluoropropoxy)pyridin-3-yl]-1,2-dihydropyridine-3-carboxamide] | 99
19 | O=C(Nc1cnn(CC2(F)CC2)c1)c1cccn(-c2ccc(F)cc2OCC(F)(F)F)c1=O [Example 66, N-{1-[(1-fluorocyclopropyl)methyl]-1H-pyrazol-4-yl}-1-[4-fluoro-2-(2,2,2-trifluoroethoxy)phenyl]-2-oxo-1,2-dihydropyridine-3-carboxamide] | 60
20 | CC(C)(O)COc1cc(F)ccc1-n1cccc(C(=O)Nc2ccc(OCC(F)(F)F)nc2)c1=O [Example 67, 1-[4-fluoro-2-(2-hydroxy-2-methylpropoxy)phenyl]-2-oxo-N-[6-(2,2,2-trifluoroethoxy)pyridin-3-yl]-1,2-dihydropyridine-3-carboxamide] | 89
21 | Cc1cccc(OCC(F)(F)F)c1-n1cccc(C(=O)Nc2ccc(C(C)(C)O)cc2)c1=O [Example 68, N-[4-(2-hydroxypropan-2-yl)phenyl]-1-[2-methyl-6-(2,2,2-trifluoroethoxy)phenyl]-2-oxo-1,2-dihydropyridine-3-carboxamide] | 97
22 | O=C(Nc1ccc(C2(O)CC2)cc1)c1cccn(-c2ccc(F)cc2OCC(F)(F)F)c1=O [Example 69, 1-[4-fluoro-2-(2,2,2-trifluoroethoxy)phenyl]-N-[4-(1-hydroxycyclopropyl)phenyl]-2-oxo-1,2-dihydropyridine-3-carboxamide] | 99
23 | CC(C)(O)COc1ccc(NC(=O)c2cccn(-c3ccccc3OCC(F)(F)F)c2=O)cc1 [Example 70, N-[4-(2-hydroxy-2-methylpropoxy)phenyl]-2-oxo-1-[2-(2,2,2-trifluoroethoxy)phenyl]-1,2-dihydropyridine-3-carboxamide] | 97
